The values below come from patent US11952365B2, “Anti-viral compounds” (Aligos Therapeutics, Inc., priority 2020, dated 2024).

Where two headings read alike, the source gives them in different places. Where only a bound is given, the exact number is not on record here.

One data set concerns the target T1, human cathepsin L (Homo sapiens, UniProt P07711).
T1 construct: purchased R&D Systems
As to the kind of experiment: cathepsin L assay. It is filed as biochemical. The following applies: 10 pM human cathepsin L, Z-FR-AMC 2 μM, class symbols. Put shortly: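 Human cathepsin L at 10 pM was preincubated 30 min with compound, then reaction started with Z-FR-AMC (2 μM final). Fluorescence (355/460 nm) read every 2 min for 30 min; IC50 from four-parameter curve fit.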

The next data set has as its target HRV3C (Human rhinovirus 14, UniProt P03303). As to the kind of experiment: HRV3C protease assay (duplex, SAMDI-MS). It is filed as biochemical, HRV. Conditions: 30 mins preincubation. Put shortly: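 Steps: enzymes (HRV3C plus 3CLpro) and compound preincubated 30 min; two peptide substrates added; 30 min reaction at ambient temperature; formic acid quench; SAMDI capture and reflector-positive TOF analysis. Product quantified against internal standard peptides. IC50 by four-parameter equation.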

Data set [1] concerns human beta-coronavirus OC43. As to the kind of experiment: microbe, parasite or virus in culture. It is filed as cell-based.
A further data set deals with HeLa cells. Kind of data set: Cytotoxicity plates without OC43 virus (cell-titer-glo). It is filed as cell-based, human. The following applies: class symbols. In a few lines: (§1)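 HeLa cells seeded overnight, then treated with serially diluted compounds in 2% FBS EMEM, uninfected, in parallel with the OC43 antiviral plates. Incubated 6 days at 33 °C; viability read by CellTiter-Glo luminescence.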

In the next data set the target is 3CLpro (Severe acute respiratory syndrome coronavirus 2, UniProt P0DTD1). Kind of data set: SARS-CoV-2 3CLpro protease assay (duplex, SAMDI-MS). It is filed as biochemical. More on the design: For the duplex assay, 3CLpro and HRV3C was added. The following applies: 30 mins preincubation, class symbols.
In data set [2] the test system is SARS-CoV-2-GHB-03021/2020. As to the kind of experiment: microbe, parasite or virus in culture. It is filed as cell-based. Conditions: read-out: VeroE6 + CP (EC50).
Another data set has as its system Vero E6-eGFP cells. Conditions: read-out: VeroE6 + CP (CC50); Vero E6-eGFP cells with CP-100356, absence of virus, MTS; numeric bounds.
The test system of data set [3] is SARS-CoV-2-GHB-03021/2020. Kind of data set: SARS-CoV-2 Infection Model in Huh7 Cells. It is filed as cell-based. Conditions: Severe acute respiratory syndrome coronavirus 2, Huh-7, 96 h, SARS-CoV-2, day 4 p.i., MTS, class symbols.
Data set [4] is described as follows: in vitro. The following applies: human.
Data set [5] can be described thus: Cytotoxicity plates without OC43 virus (cell-titer-glo). Conditions: human; HeLa cells without OC43 virus, class symbols. It is filed as cell-based, human. In a few lines: as §1
A short description of data set [6]: in vitro. The following applies: African green monkey, VeroE6 + CP (CC50), Vero E6-eGFP cells with CP-100356, absence of virus, MTS.
Where [7] appears, read: HRV3C, bound, read-out: HRV IC50.
The mark [8] stands for this setting: OC43 in HeLa cells, 6 days at 33° C., class symbols, read-out: EC50.
Where [9] appears, read: 3CLpro, read-out: SARS-Cov-2 IC50.
[10] abbreviates: HRV3C, class symbols, read-out: HRV IC50.
The mark [11] stands for this setting: Betacoronavirus 1, OC43, HeLa, 144 h, OC43 in HeLa cells, 6 days at 33° C., class symbols, read-out: EC50.
[12] abbreviates: Severe acute respiratory syndrome coronavirus 2, Vero C1008, 96 h.

For the compound `COc1cccc2[nH]c(C(=O)N3Cc4ccccc4[C@H]3C(=O)N[C@@H](C[C@@H]3CCCNC3=O)C(=O)CO)cc12` [Compound 73_1], the IC50 was at least 10 µM on human cathepsin L, over 10 µM on HRV3C (setting [7]) and 0.02 to 0.2 µM on 3CLpro (setting [9]). Besides, the EC50 in data set [1] (setting [8]) fell in the range of 0.1 to 1 µM. In the data set on HeLa cells, this compound displayed a CC50 of over 10 µM.

As to “N-benzyl-3-[[(2S)-1-(1H-indole-2-carbonyl)pyrrolidin-2-yl]formamido]-2-oxo-4-[(3S)-2-oxopyrrolidin-3-yl]butanamide [Compound 3]”, the results for the IC50 at HRV3C (setting [10]) and at 3CLpro (setting [9]) were 2 to 20 µM and 20 to 100 µM, respectively. In addition, the EC50 in [1] (setting [8]) is 10 to 100 µM; in data set [2], over 100 µM. Besides, the CC50 in the data set on HeLa cells was over 10 µM; in the data set on Vero E6-eGFP cells, over 100 µM.

For `COc1cccc2[nH]c(C(=O)N3Cc4ccccc4[C@@H]3C(=O)N[C@@H](C[C@@H]3CCCNC3=O)C(=O)CO)cc12` [Compound 73_2], the IC50 was at least 10 µM against human cathepsin L, over 10 µM at HRV3C (setting [7]) and 2 to 20 µM on 3CLpro (setting [9]). Also, in [1] (setting [8]), the EC50 fell in the range of 10 to 100 µM. In addition, the CC50 in the data set with HeLa cells was over 10 µM.

Regarding `O=C1NCC[C@H]1C[C@H](NC(=O)[C@@H]1[C@H]2[C@H]3CC[C@H](C3)[C@H]2CN1C(=O)c1cc2c(Cl)cc(Cl)cc2[nH]1)C(=O)CO` [Compound 135, (1S,3aR,4R,7S,7aS)-2-(4,6-dichloro-1H-indole-2-carbonyl)-N—((S)-4-hydroxy-3-oxo-1-((S)-2-oxopyrrolidin-3-yl)butan-2-yl)octahydro-1H-4,7-methanoisoindole-1-carboxamide], the EC50 in data set [3] is under 1 µM; in data set [1] (setting [11]) it was 0.1 to 1 µM; in data set [2] (setting [12]), under 1 µM. Further, the IC50 was at least 10 µM against human cathepsin L; 2 to 20 µM at HRV3C (HRV IC50, HRV3C, class symbols); 0.02 to 0.2 µM at 3CLpro (setting [9]). The CC50 in “in vitro [4]” and in the data set “in vitro [6]” (class symbols) was over 10 µM throughout. The compound further registered a CC50 at 6 days in data set [5] of over 10 µM.

On to `O=C(NCc1ccccc1)C(=O)[C@H](C[C@@H]1CCNC1=O)NC(=O)[C@@H]1C[C@]2(CN1C(=O)c1cc3ccccc3[nH]1)CC2(F)F` [Compound 22], for which the EC50 in data set [3] was in the range of 1 to 10 µM; in [1] (setting [11]), 1 to 10 µM; in data set [2] (setting [12]), 10 to 100 µM. Besides, the IC50 against human cathepsin L is 0.1 to 1 µM; on HRV3C (setting [10]) it was 2 to 20 µM; on 3CLpro (setting [9]), 0.2 to 2 µM. Also, the CC50 in “in vitro [4]” and in the data set “in vitro [6]” (numeric bounds) was over 100 µM each time. The CC50 at 6 days in data set [5] is over 10 µM.

For `COc1cccc2[nH]c(C(=O)N3C[C@@H]4CCC[C@@H]4[C@H]3C(=O)N[C@@H](CC3CC(C)(C)NC3=O)C(=O)C(=O)NC3CC3)cc12` (single isomer, unassigned) [Compound 95, (3S)-3-{[(1S,3aR,6aS)-2-(4-methoxy-1H-indole-2-carbonyl)-hexahydro-1H-cyclopenta[c]pyrrol-1-yl]formamido}-N-cyclopropyl-4-[(3R*)-5,5-dimethyl-2-oxopyrrolidin-3-yl]-2-oxobutanamide], the EC50 in data set [3] was in the range of 1 to 10 µM; in data set [1] (setting [11]), 0.1 to 1 µM; in data set [2] (setting [12]) it was 1 to 10 µM. Also, the IC50 against human cathepsin L is at least 10 µM; against HRV3C (HRV IC50, HRV3C, class symbols), 0.2 to 2 µM; on 3CLpro (setting [9]), 0.02 to 0.2 µM. The CC50 in “in vitro [4]” and in the data set “in vitro [6]” (numeric bounds) was over 50 µM in each case. Also, the CC50 at 6 days in [5] is over 10 µM.

On to `COc1ccc2[nH]c(C(=O)N3CCC4(CC4)C[C@H]3C(=O)N[C@@H](C[C@@H]3CCNC3=O)C(=O)C(=O)NC3CC3)cc2c1` [Compound 171], for which the EC50 in data set [3], in data set [1] (setting [11]) and in data set [2] (setting [12]) was 1 to 10 µM throughout. For the same compound, the IC50 on human cathepsin L is at least 10 µM; at HRV3C (HRV IC50, HRV3C, class symbols), 2 to 20 µM; on 3CLpro (setting [9]), 0.02 to 0.2 µM. Moreover, the CC50 is over 10 µM in the data set “in vitro [4]” and over 50 µM in “in vitro [6]” (numeric bounds). This compound also gave a CC50 at 6 days in data set [5] of over 10 µM.

`COc1ccc(Cl)c2[nH]c(C(=O)N3C[C@@H]4CCC[C@@H]4[C@H]3C(=O)N[C@@H](C[C@@H]3CCNC3=O)C(=O)CO)cc12` [Compound 89, (1S,3aR,6aS)-2-(7-chloro-4-methoxy-1H-indole-2-carbonyl)-N-[(2S)-4-hydroxy-3-oxo-1-[(3S)-2-oxopyrrolidin-3-yl]butan-2-yl]-hexahydro-1H-cyclopenta[c]pyrrole-1-carboxamide]: the EC50 was under 1 µM in data set [3], 0.1 to 1 µM in data set [1] (setting [11]) and under 1 µM in data set [2] (setting [12]). The IC50 against human cathepsin L is at least 10 µM; on HRV3C (HRV IC50, HRV3C, bound) it was over 10 µM; against 3CLpro (SARS-Cov-2 IC50, 3CLpro) it was under 0.02 µM. The CC50 in “in vitro [4]” is over 50 µM; in the data set “in vitro [6]” (numeric bounds) it was over 100 µM. The CC50 at 6 days in data set [5] was over 10 µM.

Take `O=C1NCC[C@H]1C[C@H](NC(=O)[C@@H]1[C@H]2CCC[C@H]2CN1C(=O)c1cc2c(Cl)ccc(OCc3ccccc3)c2[nH]1)C(=O)CO` [Compound 128, (1S,3aR,6aS)-2-[7-(benzyloxy)-4-chloro-1H-indole-2-carbonyl]-N-[(2S)-4-hydroxy-3-oxo-1-[(3S)-2-oxopyrrolidin-3-yl]butan-2-yl]-hexahydro-1H-cyclopenta[c]pyrrole-1-carboxamide]: the EC50 in [3] was under 1 µM; in data set [1] (setting [11]), under 0.1 µM; in data set [2] (setting [12]), 1 to 10 µM. For the same compound, the IC50 is at least 10 µM against human cathepsin L, over 10 µM on HRV3C (setting [7]) and 0.02 to 0.2 µM on 3CLpro (setting [9]). For the same compound, the CC50 in “in vitro [4]” and in “in vitro [6]” (class symbols) was over 10 µM each time. The CC50 at 6 days in data set [5] is over 10 µM.

Consider `O=C1NCC[C@H]1C[C@H](NC(=O)[C@@H]1[C@H]2CCC[C@H]2CN1C(=O)c1cc(-c2ccccc2)c[nH]1)C(=O)CO` [Compound 79, (1S,3aR,6aS)—N—((S)-4-hydroxy-3-oxo-1-((S)-2-oxopyrrolidin-3-yl)butan-2-yl)-2-(4-phenyl-1H-pyrrole-2-carbonyl)octahydrocyclopenta[c]pyrrole-1-carboxamide], for which the EC50 in [3] is 1 to 10 µM; in data set [1] (Betacoronavirus 1, OC43, HeLa, 144 h), 0.1 to 1 µM; in data set [2] (setting [12]), 1 to 10 µM. Further, the IC50 against human cathepsin L was at least 10 µM; against HRV3C (HRV IC50, HRV3C, class symbols), 2 to 20 µM; on 3CLpro (setting [9]), 0.02 to 0.2 µM. Also, the CC50 in “in vitro [4]” and in “in vitro [6]” (numeric bounds) was over 50 µM in each case. Besides, in data set [5], the CC50 at 6 days is over 10 µM.

On to `COc1cccc2[nH]c(C(=O)N3C[C@@H]4CCC[C@@H]4[C@H]3C(=O)N[C@@H](C[C@@H]3CCCNC3=O)C(O)S(=O)(=O)O)cc12` (stereo partly drawn) [Compound 53, sodium (2S)-2-{[(1S,3aR,6aS)-2-(4-methoxy-1H-indole-2-carbonyl)-hexahydro-1H-cyclopenta[c]pyrrol-1-yl]formamido}-1-hydroxy-3-[(3S)-2-oxopiperidin-3-yl]propane-1-sulfonate], for which the values for the EC50 in data set [3], in [1] (setting [11]) and in data set [2] (setting [12]) were under 1 µM, 0.1 to 1 µM and 1 to 10 µM, respectively. Also, the IC50 against human cathepsin L was at least 10 µM; at HRV3C (HRV IC50, HRV3C, class symbols), 0.02 to 0.2 µM; on 3CLpro (setting [9]) it was under 0.02 µM. In addition, the CC50 in “in vitro [4]” and in the data set “in vitro [6]” (numeric bounds) was over 100 µM throughout. The compound also yielded a CC50 at 6 days in data set [5] of over 10 µM.

In the case of `CC1(C)[C@@H]2[C@@H](C(=O)N[C@@H](C[C@@H]3CCNC3=O)C(=O)CO)N(C(=O)c3cc4c(Cl)cc(Cl)cc4[nH]3)C[C@@H]21` [Compound 127, (1R,2S,5S)-3-(4,6-dichloro-1H-indole-2-carbonyl)-N-[(2S)-4-hydroxy-3-oxo-1-[(3S)-2-oxopyrrolidin-3-yl]butan-2-yl]-6,6-dimethyl-3-azabicyclo[3.1.0]hexane-2-carboxamide], the EC50 was under 1 µM in [3], 0.1 to 1 µM in [1] (setting [11]) and under 1 µM in [2] (setting [12]). The IC50 against human cathepsin L was at least 10 µM; on HRV3C (setting [10]), 2 to 20 µM; at 3CLpro (setting [9]) it was 0.02 to 0.2 µM. Also, the CC50 in the data set “in vitro [4]” is over 10 µM; in “in vitro [6]” (numeric bounds) it was over 50 µM. This compound had a CC50 at 6 days in data set [5] of over 10 µM.

The term IC50 denotes the point on the concentration scale where inhibition reaches its midpoint. The term EC50 denotes the concentration at which the effect is half-maximal.
